Reference: US10351522B2, “Sulfonamide derivative and pharmaceutically acceptable acid addition salt thereof” (UNIVERSITY OF TSUKUBA, priority 2015, dated 2019)
Read-outs that look alike come from different tables or passages of the source.

What was measured:
human OX1R = molecular target: T1, human OX1R (Homo sapiens, UniProt O43613); experiment: Agonist activity against OX1R: intracellular calcium (Fura-2AM, FDSS7000) in CHOOX1R cells; format: cell-based; settings: for Emax at 0.1 µM / Emax at 1 µM / Emax at 10 µM: read-out: Response (%) OX1R
T1 construct: expressed in transfected cells; host or cells: CHO (Chinese hamster ovary) cells, line CHOOX1R, co-expressing NFAT-luciferase
T1 sequence (O43613 1-425): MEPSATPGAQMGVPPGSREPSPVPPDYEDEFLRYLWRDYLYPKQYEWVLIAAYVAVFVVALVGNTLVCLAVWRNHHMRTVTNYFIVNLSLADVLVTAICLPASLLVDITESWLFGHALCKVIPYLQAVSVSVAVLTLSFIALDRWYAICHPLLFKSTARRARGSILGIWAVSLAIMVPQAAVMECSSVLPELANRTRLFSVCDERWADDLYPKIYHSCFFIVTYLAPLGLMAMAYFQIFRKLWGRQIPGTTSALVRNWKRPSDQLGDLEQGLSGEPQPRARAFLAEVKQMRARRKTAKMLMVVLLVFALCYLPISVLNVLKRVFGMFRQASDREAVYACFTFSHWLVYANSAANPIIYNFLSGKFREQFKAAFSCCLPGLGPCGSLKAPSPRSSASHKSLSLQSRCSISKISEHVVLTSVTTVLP
Outline: (§1)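 Response is agonist activity at 0.1, 1.0 or 10 μM compound as a percentage of the orexin-A full-agonist maximum, taken from 340/380 nm Fura-2 ratio changes. Each cell line is CHO constitutively expressing human OX1R or OX2R with NFAT-luciferase, dye-loaded 60 min with 5 μM Fura-2AM; compound range 10^−7–10^−5 M, 1% DMSO.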

human OX2R = molecular target: T2, human OX2R (Homo sapiens, UniProt O43614); experiment: Agonist activity against OX2R: intracellular calcium (Fura-2AM, FDSS7000) in CHOOX2R cells; format: cell-based; settings: relative to orexin-A as full agonist (100%)
T2 construct: expressed in transfected cells; host or cells: CHO (Chinese hamster ovary) cells, line CHOOX2R, co-expressing NFAT-luciferase
T2 sequence (O43614 1-444): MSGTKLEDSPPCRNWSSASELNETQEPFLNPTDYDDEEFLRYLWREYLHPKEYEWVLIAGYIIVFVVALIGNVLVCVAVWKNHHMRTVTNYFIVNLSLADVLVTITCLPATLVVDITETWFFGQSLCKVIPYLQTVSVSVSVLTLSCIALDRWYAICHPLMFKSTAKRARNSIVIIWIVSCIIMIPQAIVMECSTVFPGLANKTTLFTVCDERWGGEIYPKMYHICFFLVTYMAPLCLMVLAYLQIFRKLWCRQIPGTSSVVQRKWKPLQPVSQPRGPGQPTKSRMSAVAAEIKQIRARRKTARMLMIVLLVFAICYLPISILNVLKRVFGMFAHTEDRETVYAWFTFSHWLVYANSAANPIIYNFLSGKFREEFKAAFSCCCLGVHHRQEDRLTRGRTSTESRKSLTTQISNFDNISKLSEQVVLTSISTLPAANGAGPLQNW
Outline: as §1

[1] = 0.1 μM test compound, relative to orexin-A as full agonist (100%)
[2] = 1.0 μM test compound, relative to orexin-A as full agonist (100%)
[3] = 10 μM test compound, relative to orexin-A as full agonist (100%)
[4] = test compound 0.1 μM, relative to orexin-A as full agonist (100%)
[5] = test compound 1.0 μM, relative to orexin-A as full agonist (100%)
[6] = test compound 10 μM, relative to orexin-A as full agonist (100%)

COc1ccc(-c2cccc(C(=O)N(C)C)c2)cc1S(=O)(=O)Nc1cccc(NC(=O)Nc2cccc(NC(=N)N)c2)c1 [Example 65]
Response (%) OX1R (human OX1R; [1]): <5%
Response (%) OX1R (human OX1R; [2]): <5%
Response (%) OX1R (human OX1R; [3]): <5%
Response (%) OX2R (human OX2R; 0.1 μM test compound): <5%
Response (%) OX2R (human OX2R; 1.0 μM test compound): <5%
Response (%) OX2R (human OX2R; 10 μM test compound): 6%

COc1ccc(-c2cccc(C(=O)N(C)C)c2)cc1S(=O)(=O)Nc1cccc(NCc2ccccc2)c1 [Example 20, 3′-(N-(3-(benzylamino)phenyl)sulfamoyl)-4′-methoxy-N,N-dimethyl-[1,1′-biphenyl]-3-carboxamide]
Emax at 0.1 µM (human OX1R; [1]): < 5%
Emax at 1 µM (human OX1R; [2]): < 5%
Emax at 10 µM (human OX1R; [3]): 17%
Response (%) OX2R (human OX2R; 0.1 μM test compound): <5%
Response (%) OX2R (human OX2R; 1.0 μM test compound): 51%
Response (%) OX2R (human OX2R; 10 μM test compound): 78%

COc1ccc(-c2cccc(C(=O)N(C)C)c2)cc1S(=O)(=O)Nc1cccc(N2CCN(c3cccc(N(C)C)c3)C2=O)c1 [Example 130]
Response (%) OX1R (human OX1R; [4]): <5%
Response (%) OX1R (human OX1R; [5]): <5%
Response (%) OX1R (human OX1R; [6]): 6%
Response (%) OX2R (human OX2R; test compound 0.1 μM): 64%
Response (%) OX2R (human OX2R; test compound 1.0 μM): 99%
Response (%) OX2R (human OX2R; test compound 10 μM): 106%

COc1ccc(-c2cccc(C(=O)N(C)C)c2)cc1S(=O)(=O)Nc1cccc(NC(=O)Nc2ccc(N(C)C)nc2)c1 [Example 71]
Response (%) OX1R (human OX1R; [1]): 6%
Response (%) OX1R (human OX1R; [2]): <5%
Response (%) OX1R (human OX1R; [3]): 10%
Response (%) OX2R (human OX2R; 0.1 μM test compound): 106%
Response (%) OX2R (human OX2R; 1.0 μM test compound): 97%
Response (%) OX2R (human OX2R; 10 μM test compound): 113%

COc1ccc(-c2cccc(C(=O)N(C)C)c2)cc1S(=O)(=O)Nc1cccc(NC(=O)N(C)c2cccc(N(C)C)c2)c1 [Example 127, 3′-(N-(3-(3-(3-(dimethylamino)phenyl)-3-methylureido)phenyl)sulfamoyl)-4′-methoxy-N,N-dimethyl-[1,1′-biphenyl]-3-carboxamide]
Emax at 0.1 µM (human OX1R): < 5%
Emax at 1 µM (human OX1R): 7%
Emax at 10 µM (human OX1R): 56%
Response (%) OX2R (human OX2R; test compound 0.1 μM): 106%
Response (%) OX2R (human OX2R; test compound 1.0 μM): 90%
Response (%) OX2R (human OX2R; test compound 10 μM): 73%

COc1ccc(-c2cccc(C(=O)N(C)C)c2)cc1S(=O)(=O)Nc1cccc(N2CCCN(c3ccccc3N(C)C)C2=O)c1 [Example 133]
Response (%) OX1R (human OX1R; [4]): 25%
Response (%) OX1R (human OX1R; [5]): 86%
Response (%) OX1R (human OX1R; [6]): 84%
Response (%) OX2R (human OX2R; test compound 0.1 μM): 107%
Response (%) OX2R (human OX2R; test compound 1.0 μM): 81%
Response (%) OX2R (human OX2R; test compound 10 μM): 72%

CCOc1ccc(-c2cccc(C(=O)N(C)C)c2)cc1S(=O)(=O)Nc1cccc(NC(=O)Nc2cccc(N(C)C)c2)c1 [Example 119, 3′-(N-(3-(3-(3-(dimethylamino)phenyl)ureido)phenyl)sulfamoyl)-4′-ethoxy-N,N-dimethyl-[1,1′-biphenyl]-3-carboxamide]
Emax at 0.1 µM (human OX1R; [4]): < 5%
Emax at 1 µM (human OX1R; [5]): < 5%
Emax at 10 µM (human OX1R; [6]): < 5%
Response (%) OX2R (human OX2R; test compound 0.1 μM): 49%
Response (%) OX2R (human OX2R; test compound 1.0 μM): 85%
Response (%) OX2R (human OX2R; test compound 10 μM): 98%

COc1cccc(Nc2c(Nc3cccc(NS(=O)(=O)c4cc(-c5cccc(C(=O)N(C)C)c5)ccc4OC)c3)c(=O)c2=O)c1 [Example 82]
Response (%) OX1R (human OX1R; [4]): <5%
Response (%) OX1R (human OX1R; [5]): <5%
Response (%) OX1R (human OX1R; [6]): 7%
Response (%) OX2R (human OX2R; test compound 0.1 μM): <5%
Response (%) OX2R (human OX2R; test compound 1.0 μM): <5%
Response (%) OX2R (human OX2R; test compound 10 μM): 16%

COc1ccc(Nc2cccc(NS(=O)(=O)c3cc(-c4cccc(C(=O)N(C)C)c4)ccc3OC)c2)cc1 [Example 29]
Response (%) OX1R (human OX1R; [1]): <5%
Response (%) OX1R (human OX1R; [2]): <5%
Response (%) OX1R (human OX1R; [3]): <5%
Response (%) OX2R (human OX2R; 0.1 μM test compound): 11%
Response (%) OX2R (human OX2R; 1.0 μM test compound): 84%
Response (%) OX2R (human OX2R; 10 μM test compound): 81%

COc1ccc(-c2cccc(C(=O)N(C)C)c2)cc1S(=O)(=O)Nc1cccc(NC(=O)Nc2cccc(N(C)C)c2)n1 [Example 124]
Response (%) OX1R (human OX1R; [4]): 8%
Response (%) OX1R (human OX1R; [5]): 7%
Response (%) OX1R (human OX1R; [6]): 8%
Response (%) OX2R (human OX2R; test compound 0.1 μM): 9%
Response (%) OX2R (human OX2R; test compound 1.0 μM): 78%
Response (%) OX2R (human OX2R; test compound 10 μM): 147%
